The text below walks through data of patent US6521654B2, “Substituted imidazolidine derivatives, their preparation, their use and pharmaceutical preparations including them” (Aventis Pharma Deutschland GmbH, priority 1997, dated 2003).

SMILES strings stand for the structures.

The test deals with T1, interaction between VCAM-1 and VLA-4 (Homo sapiens, UniProt P05556+P13612).
T1 construct: supplied in their natural form as surface molecules on human U937 cells; host or cells: U937 cells carry endogenous VLA-4; The partner hVCAM-1(1-3)-IgG was made in house in transfected COS cells (ATCC CRL1651) and used as culture supernatant
T1 sequence (P13612 34-1032): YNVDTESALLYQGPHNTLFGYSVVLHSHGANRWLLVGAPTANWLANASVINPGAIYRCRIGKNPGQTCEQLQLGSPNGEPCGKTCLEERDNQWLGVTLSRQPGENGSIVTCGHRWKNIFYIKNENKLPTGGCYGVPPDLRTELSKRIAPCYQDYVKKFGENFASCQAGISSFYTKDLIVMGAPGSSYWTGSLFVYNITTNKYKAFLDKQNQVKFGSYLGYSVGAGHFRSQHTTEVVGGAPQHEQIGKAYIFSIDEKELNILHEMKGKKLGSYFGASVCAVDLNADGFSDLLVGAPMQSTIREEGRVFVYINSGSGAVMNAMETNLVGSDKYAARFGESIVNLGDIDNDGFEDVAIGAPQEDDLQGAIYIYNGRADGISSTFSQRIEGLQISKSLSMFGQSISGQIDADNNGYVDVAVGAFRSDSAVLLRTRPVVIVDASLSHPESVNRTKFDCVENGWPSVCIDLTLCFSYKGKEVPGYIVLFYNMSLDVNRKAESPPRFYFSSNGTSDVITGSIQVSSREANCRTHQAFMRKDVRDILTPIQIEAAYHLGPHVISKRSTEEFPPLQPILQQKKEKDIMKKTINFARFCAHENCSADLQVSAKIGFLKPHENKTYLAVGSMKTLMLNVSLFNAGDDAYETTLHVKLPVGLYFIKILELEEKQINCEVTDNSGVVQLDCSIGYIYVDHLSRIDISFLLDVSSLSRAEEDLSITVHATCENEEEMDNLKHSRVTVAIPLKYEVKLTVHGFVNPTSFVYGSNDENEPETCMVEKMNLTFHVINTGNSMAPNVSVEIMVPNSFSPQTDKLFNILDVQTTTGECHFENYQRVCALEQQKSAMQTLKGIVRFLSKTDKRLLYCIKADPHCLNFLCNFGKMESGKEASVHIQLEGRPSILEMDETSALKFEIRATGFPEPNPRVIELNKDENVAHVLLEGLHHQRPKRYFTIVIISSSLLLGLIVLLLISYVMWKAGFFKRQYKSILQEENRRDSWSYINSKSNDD
T1 sequence (P05556 21-798): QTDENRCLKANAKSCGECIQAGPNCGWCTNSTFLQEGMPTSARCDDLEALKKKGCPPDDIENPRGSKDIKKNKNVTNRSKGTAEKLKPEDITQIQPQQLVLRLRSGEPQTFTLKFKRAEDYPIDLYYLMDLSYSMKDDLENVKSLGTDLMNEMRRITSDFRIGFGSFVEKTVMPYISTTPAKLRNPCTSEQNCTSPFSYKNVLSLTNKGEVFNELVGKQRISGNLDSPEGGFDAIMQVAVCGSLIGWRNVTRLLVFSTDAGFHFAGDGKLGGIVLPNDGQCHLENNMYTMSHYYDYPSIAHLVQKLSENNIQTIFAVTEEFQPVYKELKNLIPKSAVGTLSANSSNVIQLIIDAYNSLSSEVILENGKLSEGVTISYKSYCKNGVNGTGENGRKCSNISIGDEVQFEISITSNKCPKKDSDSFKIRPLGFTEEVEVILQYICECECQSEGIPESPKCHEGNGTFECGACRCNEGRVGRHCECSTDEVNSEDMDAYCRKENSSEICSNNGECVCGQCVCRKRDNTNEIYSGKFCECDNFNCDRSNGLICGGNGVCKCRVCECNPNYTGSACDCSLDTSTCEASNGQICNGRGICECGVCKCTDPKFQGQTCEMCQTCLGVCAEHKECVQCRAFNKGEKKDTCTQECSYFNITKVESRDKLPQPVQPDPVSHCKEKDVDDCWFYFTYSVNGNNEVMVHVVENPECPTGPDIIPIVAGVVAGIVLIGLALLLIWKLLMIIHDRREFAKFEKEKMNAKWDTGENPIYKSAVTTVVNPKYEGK
Description: U937/VCAM-1 cell adhesion test (adhesion of U937 cells to hVCAM-1(1-3)-IgG). Format: cell-based. To be noted: concentration leading to 50% inhibition of adhesion of human U937 cells (ATCC CRL 1593) to hVCAM-1(1-3)-IgG. An excerpt: The test method used for the activity of the compounds of the formula I on the interaction between VCAM-1 and VLA-4 is the assay described below which is specific for this interaction. The cellular binding components, i.e., the VLA-4 integrins, are supplied in their natural form as surface molecules on human U937 cells (ATCC CRL 1593). which belong to the leucocytes group. The specific binding components used are genetically engineered recombinant soluble fusion proteins, consisting of the extracytoplasmatic domain of human VCAM-1 and the constant region of a human immunoglobulin of the subclass IgG1.
Assay for the Measurement of the Adhesion of U937 Cells (ATCC CRL 1593) to hVCAM-1(1-3)-IgG
1. Preparation of Human VCAM-1 (1-3)-IgG and Human CD4-IgG
A genetic construct for the expression of the extracellular domain of human VCAM-1, associated with the genetic sequence of the heavy chain of human immunoglobulin IgG1 (hinge, CH2 and CH3 regions), from Dr. Brian Seed, Massachusetts General Hospital. Boston, USA was employed (cf. Damle and Aruffo, Proc. Natl. Acad. Sci. USA 1991, 88, 6403-6407). The soluble fusion protein hVCAM-1(1-3)-IgG contained the three amino-terminal extracellular immunoglobulin-like domains of human VCAM-1 (Damle and Aruffo, Proc. Natl. Acad. Sci. USA 1991, 88, 6403-6407). CD4-IgG (Zettimeissl et al., DNA and Cell Biology 1990, 9, 347) served as a fusion protein for negative controls. The recombinant proteins were expressed as soluble proteins after DEAE/dextran-mediated DNA transfection in COS cells (ATCC CRL1651) according to standard procedures (Ausubel et al., Current Protocols in Molecular Biology, John Wiley & Sons, Inc., 1994).
2. Assay for the Measurement of the Adhesion of U937 Cells to hVCAM-1 (1-3)-IgG
2.1 96-well microtiter test plates (Nunc Maxisorb) were incubated at room temperature for 1 hour with 100 μl/well of a goat-anti-human IgG antibody solution (10 μg/ml in 50 mM tris, pH 9.5). After removal of the antibody solution, washing was carried out once with PBS.
2.2 150 μl/well of a blocking buffer (1% BSA in PBS) were incubated on the plates at room temperature for 0.5 hour. After removal of the blocking buffer, washing was carried out once with PBS.
2.3 100 μl per well of a cell culture supernatant of transfected COS cells were incubated on the plates at room temperature for 1.5 hours. The COS cells were transfected with a plasmid which codes for the three N-terminal immunoglobulin-like domains of VCAM-1, coupled to the Fc part of human IgG1 (hVCAM-1 (1-3)-IgG). The content of hVCAM-1 (1-3)-IgG was about 0.5-1 μg/ml. After removal of the culture supernatant, washing was carried out once with PBS.
2.4 The plates were incubated at room temperature for 20 minutes with 100 μl/well of Fc receptor blocking buffer (1 mg/ml of γ-globulin, 100 mM NaCl, 100 μM MgCl2, 100 μM MnCl2, 100 μM CaCl2, 1 mg/ml of BSA in 50 mM HEPES, pH 7.5). After removal of the Fc receptor blocking buffer, washing was carried out once with PBS.
2.5 20 μl of binding buffer (100 mM NaCl, 100 μM MgCl2, 100 μM MnCl2, 100 μM CaCl2, 1 mg/ml of BSA in 50 mM HEPES, pH 7.5) were initially introduced, and the substances to be tested were added in 10 μl of binding buffer and incubated for 20 minutes. The controls used were antibodies against VCAM-1 (BBT, No. BBA6) and against VLA-4 (immunotech, No. 0764).
2.6 U937 cells were incubated in Fc receptor blocking buffer for 20 minutes and then added by pipette in a concentration of 1×10^6/ml and in an amount of 100 μl per well ([…]).
2.7 The plates were slowly immersed at an angle of 45° in stop buffer (100 mM NaCl, 100 μM MgCl2, 100 μM MnCl2, 100 μM CaCl2 in 25 mM tris, pH 7.5) and shaken off. The process was repeated.
2.8 50 μl/well of a dye solution (16.7 μg/ml of Hoechst Dye 33258, 4% formaldehyde, 0.5% triton X-100 in PBS) were then incubated on the plates for 15 minutes. […]
The compound `Cc1ccccc1NC(=O)Nc1ccc(CN2C(=O)N(CC(=O)N(C)[C@@H](CC(=O)O)C(=O)NC3C4CC5CC(C4)CC3C5)C(=O)C2(C)C)cc1` (stereo partly drawn) [Example 22, (2-(4,4-Dimethyl-3-(4-(3-(2-methylphenyl)ureido)benzyl)-2,5-dioxoimidazolidin-1-yl)-acetyl)-N-methyl-L-(2-adamantyl)aspartamide] came in with an IC50 of 4 nM. With `CN(C(=O)CN1C(=O)N(Cc2ccc(NC(=O)Nc3ccccc3)cc2)C(C)(C)C1=O)[C@@H](CC(=O)O)C(=O)NC1C2CC3CC(C2)CC1C3` (stereo partly drawn) [Example 23] the figure was 16 nM; with `CC1(C)C(=O)N(CC(=O)N[C@@H](CC(=O)O)C(=O)NC2C3CC4CC(C3)CC2C4)C(=O)N1Cc1ccc(NC(=O)Nc2ccccc2)cc1` (stereo partly drawn) [Example 24, (2-(4,4-Dimethyl-3-(4-(3-phenylureido)benzyl)-2,5-dioxoimidazolidin-1-yl)-acetyl)-L-(2-adamantyl)aspartamide], 6 nM; with `CC(C)C[C@@H](C(=O)N[C@@H](CC(=O)O)C(=O)NC1C2CC3CC(C2)CC1C3)N1C(=O)N(Cc2ccc(NC(=O)Nc3ccccc3)cc2)C(C)(C)C1=O` (stereo partly drawn) [Example 25], 6 nM. With `Cc1ccccc1NC(=O)Nc1ccc(CN2CC(=O)N(CC(=O)N[C@H](C)CC(=O)O)C2=O)cc1` [Example 26, (R)-3-(2-(3-(4-(3-(2-Methylphenyl)ureido)benzyl)-2,5-dioxoimidazolidin-1-yl)-acetylamino)-3-methylpropionic Acid] the figure was 2900 nM. `Cc1ccccc1NC(=O)Nc1ccc(CN2C(=O)N([C@@H](CC(C)C)C(=O)N[C@@H](CC(=O)O)C(=O)O)C(=O)C2(C)C)cc1` [Example 27, ((S)-2-(4,4Dimethyl-3-(4-(3-(2-methylphenyl)ureido)benzyl)-2,5-dioxoimidazolidin-1-yl)-2-(2-methylpropyl)acetyl)-L-aspartic Acid] had an IC50 of 27 nM. With `Cc1ccccc1NC(=O)Nc1ccc(CN2C(=O)N(CC(=O)N(C)[C@@H](CC(=O)O)C(=O)O)C(=O)C2(C)C)cc1` [Example 28, (2-(4,4-Dimethyl-3-(4-(3-(2-methylphenyl)ureido)benzyl)-2,5-dioxoimidazolidin-1-yl)-acetyl)-N-methyl-L-aspartic Acid] the figure was 110 nM. For the compound `Cc1ccccc1NC(=O)Nc1ccc(CN2CC(=O)N(CC(=O)N[C@@H](CC(=O)O)c3ccccc3)C2=O)cc1` [Example 29, (S)3-(2-(3-(4-(3-(2-Methylphenyl)ureido)benzyl)-2,5-dioxoimidazolidin-1-yl)-acetylamino)-3-phenylpropionic Acid], the half-maximal inhibitory concentration (IC50) is 890 nM. In turn, `C[C@H](CC(=O)O)NC(=O)CN1C(=O)CN(Cc2ccc(NC(=O)Nc3ccccc3Cl)cc2)C1=O` [Example 30, (R)-3-(2-(3-(4-(3-(2-Chlorophenyl)ureido)benzyl)-2,5-dioxoimidazolidin-1-yl)-acetylamino)-3-methylpropionic Acid] gave an IC50 of 580 nM. This IC50 is about 1.5-fold lower than that of the compound before. With `Cc1cccc(NC(=O)Nc2ccc(CN3C(=O)N(CC(=O)NC(C)CC(=O)O)C(=O)C3(C)C)cc2)c1C` (stereo not drawn) [Example 34] the figure was 490 nM; with `COC(=O)c1ccccc1NC(=O)Nc1ccc(CN2C(=O)N(CC(=O)N[C@H](C)CC(=O)O)C(=O)C2(C)C)cc1` [Example 38], 400 nM. With `CCc1cccc(C)c1NC(=O)Nc1ccc(CN2C(=O)N(CC(=O)N[C@@H](CC(=O)O)c3ccccc3)C(=O)C2(C)C)cc1` [Example 41] the figure was 1470 nM; with `Cc1cccc(C)c1NC(=O)Nc1ccc(CN2C(=O)N(CC(=O)N[C@@H](CC(=O)O)c3ccccc3)C(=O)C2(C)C)cc1` [Example 42], 470 nM. With `Cc1ccc(NC(=O)Nc2ccc(CN3C(=O)N(CC(=O)N[C@@H](CC(=O)O)c4ccccc4)C(=O)C3(C)C)cc2)c(C)c1` [Example 43] the figure was 740 nM.

`Cc1ccccc1NC(=O)Nc1ccc(CN2C(=O)N([C@@H](CC(C)C)C(=O)N[C@@H](CC(=O)O)C(=O)N[C@H](C(=O)O)c3ccccc3)C(=O)C2(C)C)cc1` [Example 47, ((S)-2-(4,4-Dimethyl-3-(4-(3-(2-methylphenyl)ureido)benzyl)-2,5-dioxoimidazolidin-1-yl)-2-(2-methylpropyl)acetyl)-L-aspartyl-L-phenylglycine] gave an IC50 of 0.85 nM.

`CC(C)C[C@@H](C(=O)N[C@@H](CC(=O)O)C(=O)N[C@H](C(=O)O)c1ccccc1)N1C(=O)N(Cc2ccc(NC(=O)Nc3ccc(F)cc3)cc2)C(C)(C)C1=O` [Example 49]: the 50% inhibitory concentration (IC50) amounted to 13 nM. With `CC(C)C[C@@H](C(=O)N[C@@H](CC(=O)O)C(=O)N[C@H](C(=O)O)c1ccccc1)N1C(=O)N(Cc2ccc(NC(=O)NCc3ccccc3)cc2)C(C)(C)C1=O` [Example 58] the figure was 450 nM.

In turn, `COc1ccccc1NC(=O)Nc1ccc(CN2C(=O)N([C@@H](CC(C)C)C(=O)N[C@@H](CC(=O)O)C(=O)N[C@H](C(=O)O)c3ccccc3)C(=O)C2(C)C)cc1` [Example 61] had an IC50 of 24.5 nM. With `CC(C)C[C@@H](C(=O)N[C@@H](CC(=O)O)C(=O)N[C@H](C(=O)O)c1ccccc1)N1C(=O)N(Cc2ccc(NC(=O)Nc3ccccc3Cl)cc2)C(C)(C)C1=O` [Example 62] the figure was 5 nM.

The compound `CC(C)C[C@@H](C(=O)N[C@@H](CC(=O)O)C(=O)N[C@H](C(=O)O)c1ccccc1)N1C(=O)N(Cc2ccc(NC(=O)Nc3ccccc3F)cc2)C(C)(C)C1=O` [Example 67] displayed a 50% inhibitory concentration (IC50) of 2.3 nM.

The compound `CC(C)C[C@@H](C(=O)N[C@@H](CC(=O)O)C(=O)N[C@H](C(=O)O)c1ccccc1)N1C(=O)N(Cc2ccc(NC(=O)Nc3ccccc3C(F)(F)F)cc2)C(C)(C)C1=O` [Example 68] displayed a 50% inhibitory concentration (IC50) of 300 nM. With `Cc1ccccc1NC(=O)Nc1ccc(CN2C(=O)N([C@@H](C)C(=O)N[C@H](C)CC(=O)O)C(=O)C2(C)C)cc1` [Example 90, (R)-3-((S)-2-(4,4-Dimethyl-3-(4-(3-(2-methylphenyl)ureido)benzyl)-2,5-dioxoimidazolidin-1-yl)-2-methyl-acetylamino)-3-methylpropionic Acid] the figure was 82 nM.

`Cc1ccccc1NC(=O)Nc1ccc(CN2C(=O)N(CC(=O)NC(C)(C)CC(=O)O)C(=O)C2(C)C)cc1` [Example 91, 3-(2-(4,4-Dimethyl-3-(4-(3-(2-methylphenyl)ureido)benzyl)-2,5-dioxoimidazolidin-1-yl)acetylamino)-3,3-dimethylpropionic Acid]: half-maximal inhibition (IC50) required 210 nM. With `C[C@H](CC(=O)O)NC(=O)[C@H](CC1CC1)N1C(=O)N(Cc2ccc(NC(=O)Nc3ccccc3)cc2)C(C)(C)C1=O` [Example 92, (R)-3-((S)-2-(4,4-Dimethyl-3-(4-(3-phenylureido)benzyl)-2,5-dioxoimidazolidin-1-yl)-2-cyclopropylmethylacetylamino)-3-methylpropionic Acid] the figure was 40 nM.
